In patent US20260306460A1, “COMPOSITION FOR REMOVING AND INHIBITING SENESCENT CELLS, AND USES THEREOF” (LIFECEUTIX CO., LTD., priority 2023, published 2026):

Experiments:
senescent A549 cells = assay: Survival of senescent A549 cells treated with supernatant from death-induced cancer cells, Example 14; type: cell-based, human; conditions: for viability at 30 µM: Homo sapiens
Protocol: (§1) In the same way as Examples 12 and 13, senescence of cancer (A549) cells was induced by treatment with doxorubicin or the control group (DMSO), and the cells were cultured. The cells were treated with LX-405 at a concentration of 30 μM. 3 days later, cell viability was measured using CellTiter-Glo Luminescent Cell Viability Assay (Promega) or an optical microscope. In the same manner as in Example 13, the medium supernatants comprising secreted fluid from normally proliferating and senescent cancer cells was obtained. Normally proliferating and senescent-induced cancer cells were treated with the medium supernatants.
Furthermore, other test compounds were used in the same manner in Example 12 above at high concentrations of 30 μM, 90 μM, and 270 μM, respectively, and the cultured medium supernatant comprising secreted fluid from aged cancer cells that were killed were obtained. As a result of measuring the degree of death of aged cancer cells, it was confirmed that aged cancer cells can be effectively removed, as shown in Example 12.

proliferating A549 cells = assay: Survival of proliferating A549 cells treated with supernatant from death-induced cancer cells, Example 14; type: cell-based, human; conditions: for viability at 30 µM: Homo sapiens
Protocol: as §1

[1] = tested on: non-senescent proliferating human cells; assay: Effect on non-senescent (proliferating) human cells; type: cell-based; conditions: normally proliferating foreskin cells; 30 μM, 3 days
Source text: Based on the results of Example 10 of WO2023-085787 A1, compounds that induce the death of senescent cells through a mechanism similar to LX-112, unlike existing senescent cell removers such as ABT-263, were screened based on HMGN1. […] The following test compounds were synthesized by and purchased from Medchemexpress, Selleckchem, Cayman, Medkoo, Sigma, Molport, Enzo, TCI, Santa Cruz, REONSIMI, Abcam, Alfa Aesar, APExBIO, BOCSCI, Merck, Thermo Fisher Scientific, R&D Systems, ChemFaces, Aobious, etc. […] In cells in which senescence was not induced by treatment with the control group (DMSO), the amount of HMGN1 above the effective value (sensitivity: 35 pg/ml), analysis limit, was not detected in both untreated and treated conditions with the test compound. On the other hand, in cells where senescence was induced by treatment with doxorubicin, the amount of HMGN1 was measured at 80 to 90 pg/ml. […]
After 3 days, cell viability was measured using CellTiter-Glo Luminescent Cell Viability Assay (Promega) or light microscopy.
Using the same method as Example 11, compounds that induce senescent cell death through a mechanism similar to that of LX-112 (ethaselen (1,2-[bis(1,2-benzisoselenazolone-3 (2H)-ketone)]ethane)) were screened based on HMGN1 and others. […] On the other hand, in cells senescent with doxorubicin, an amount of HMGN1 of […] was measured. […]

[2] = tested on: doxorubicin-induced aged C57BL6J mice; assay: SASP mRNA (IL6, CXCL1, CXCL10, IL1B) in doxorubicin-aged mice, Example 22-6, Table 35; type: in vivo, mouse; conditions: untreated aged = 100%
Protocol: Eight-week-old male C57BL6J mice (KRIBB Laboratory Animal Resource Center) were acclimated to the experimental environment for one week. Afterwards, the anticancer agent doxorubicin was administered intraperitoneally at a concentration of 10 mg/kg, inducing aging for more than 10 days. The aging-induced mice were randomly assigned to experimental and control groups. LX-403 was mixed with a 10% ethanol solution of PEG400 and administered orally at a concentration of 25 mg/kg or intradermally at a concentration of 1 μM for 21 days. LX-1801 was mixed in distilled water with 4% DMSO, 30% PEG300, and 5% Tween80 and administered intradermally at a concentration of 0.4 μM daily for 21 days. LX-2001 was mixed in PBS and administered intradermally at a concentration of 2 μM daily for 21 days. LX-2002 was mixed in distilled water with 4% DMSO, 30% PEG300, and 5% Tween80 and administered intradermally at a concentration of 2 μM daily for 21 days. […] LX-2005 was mixed in distilled water with 4% DMSO, 30% PEG300, and 5% Tween80 and administered intradermally at a concentration of 90 μM daily for 21 days. LX-2007 was mixed in distilled water with 4% DMSO, 30% PEG300, and 5% Tween80 and administered intradermally at a concentration of 90 μM daily for 21 days. […] LX-3002 was mixed in distilled water with 4% DMSO, 30% PEG300, and 5% Tween80 and administered orally at a concentration of 10 mg/kg daily for 21 days. […] LX-5411 was mixed in 5% phosphate-buffered saline (PBS) and administered orally at a concentration of 10 mg/kg daily for 21 days or intradermally at a concentration of 3 μM. LX-5701 was mixed in PBS and administered orally at a concentration of 360 mg/kg daily for 21 days. LX-6807 was mixed in saline and administered intraperitoneally at a concentration of 1 mg/kg daily for 21 days. The control group received only the solution in the same volume. After the end of drug administration, the methods described in each example below were performed.
Using cDNA synthesized in the same manner as in Example 7-6 of WO2023-085787 A1, qRT-PCR was performed and analyzed for senescence-associated secretory factors (SASPs) like IL6, CXCL1, CXCL10, IL1B, etc. […] The mRNA amount of each factor after aging induction was calculated as 100% and compared with the mRNA amount of each factor after LX-5701 treatment.

[3] = A549, supernatant from No Cells
[4] = A549, A549, supernatant from death-induced proliferating cells
[5] = A549, A549, supernatant from death-induced senescent cells

| Compound | Survival (senescent A549 cells; [3]) | viability at 30 µM (senescent A549 cells; [4]) [%] | viability at 30 µM (senescent A549 cells; [5]) [%] | Survival (proliferating A549 cells; [3]) | viability at 30 µM (proliferating A549 cells; [4]) [%] | viability at 30 µM (proliferating A549 cells; [5]) [%] | induced death of cells [1] | CXCL1 mRNA (%), Liver ([2]; Liver) | CXCL10 mRNA (%), Liver ([2]; Liver) | IL1β mRNA (%), Liver ([2]; Liver) | IL6 mRNA (%), Liver ([2]; Liver) | CXCL1 mRNA (%), eWAT ([2]; eWAT) | CXCL10 mRNA (%), eWAT ([2]; eWAT) | IL1β mRNA (%), eWAT ([2]; eWAT) | IL6 mRNA (%), eWAT ([2]; eWAT) |
| --- | --- | --- | --- | --- | --- | --- | --- | --- | --- | --- | --- | --- | --- | --- | --- |
| COC(=O)c1ccc([C@H]2c3[nH]c4ccccc4c3C[C@H](C(=O)OC)N2C(=O)CCl)cc1 [LX-405] | 98.2 (±2.8) % | 78.8 | 72.5 | 101.4 (±1.3) % | 98.6 | 105 | induced the death of most cells | – | – | – | – | – | – | – | – |
| O=C1C2CCN(CC2)C1CNC(=O)C(F)(F)F (stereo not drawn) [LX-5701] | – | – | – | – | – | – | – | 68 (±14.8) % | 75 (±4.1) % | 73 (±3.5) % | 64 (±7.5) % | 74 (±4.7) % | 69 (±7.0) % | 56 (±11.2) % | 55 (±15.1) % |
